Data reported in patent EP4273147A1, “SUBSTITUTED SPIROLACTAMS, SALTS THEREOF AND THEIR USE AS HERBICIDALLY ACTIVE SUBSTANCES” (Bayer Aktiengesellschaft, priority 2022, dated 2023).

Legend:
SETVI [1] = assay: Herbicidal pre-emergence action, section C (Table C10); type: in vivo, Setaria viridis; settings: application rate 320 g/ha; visual grading after ca. 3 weeks
SETVI [2] = assay: Herbicidal pre-emergence action (Table A5); type: in vivo, Setaria viridis; settings: application rate 320 g/ha; visual grading after ca. 3 weeks
Procedure, shortened: (§1)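 Sown in sandy loam in pots and covered with soil: weed seeds, two species per pot, one of each plant class (mono- and dicotyledonous).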

ECHCG [3] = assay: Herbicidal pre-emergence action (Table A2); type: in vivo, Echinochloa crus-galli; settings: visual grading after ca. 3 weeks
Procedure, shortened: as §1

ZEAMX [4] = assay: Post-emergence effects on crop plants (Table F1); type: in vivo, Zea mays; settings: application rate 320 g/ha, crop plant ZEAMX
Text: (§2) 2 to 3 weeks after sowing, the test plants were sprayed in the single-leaf stage.

TRZAS [5] = assay: Post-emergence effects on crop plants (Table F2); type: in vivo, Triticum aestivum; settings: application rate 320 g/ha, crop plant TRZAS
Text: as §2

VIOTR [6] = assay: Herbicidal pre-emergence action, section C (Table C12); type: in vivo, Viola tricolor; settings: application rate 80 g/ha; visual grading after ca. 3 weeks
LOLRI [7] = assay: Herbicidal pre-emergence action, section C (Table C7); type: in vivo, Lolium rigidum; settings: application rate 320 g/ha; visual grading after ca. 3 weeks
KCHSC = assay: Herbicidal pre-emergence action (Table A10); type: in vivo, Kochia scoparia; settings: application rate 320 g/ha; visual grading after ca. 3 weeks
Procedure, shortened: as §1

SETVI [8] = assay: Herbicidal post-emergence action (Table B8); type: in vivo, Setaria viridis; settings: application rate 1280 g/ha
Procedure, shortened: (§3)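 Plants grown from seed in a greenhouse are treated at the one-leaf stage, two to three weeks after sowing. They then stay under optimum growth conditions for about three weeks before herbicidal activity is scored visually on a 0–100% scale against untreated controls.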

ABUTH [9] = assay: Herbicidal pre-emergence action, section C (Table C1); type: in vivo, Abutilon theophrasti; settings: application rate 320 g/ha; visual grading after ca. 3 weeks
ECHCG [10] = assay: Herbicidal post-emergence action (Table B3); type: in vivo, Echinochloa crus-galli; settings: application rate 1280 g/ha; rated visually after about 3 weeks
Procedure, shortened: as §3

DIGSA [11] = assay: Herbicidal post-emergence action (Table B12); type: in vivo, Digitaria sanguinalis; settings: application rate 1280 g/ha
Protocol: Seeds of mono- and dicotyledonous weed plants were placed in plastic pots in sandy loam soil (doubly sown with in each case one species of mono- or dicotyledonous weed plants per pot), covered with soil and cultivated in a greenhouse under controlled growth conditions. 2 to 3 weeks after sowing, the test plants were treated at the one-leaf stage. […] After the test plants had been kept in the greenhouse under optimum growth conditions for about 3 weeks, the activity of the preparations was rated visually in comparison to untreated controls. For example, 100% activity = the plants have died, 0% activity = like control plants.

ORYZA [12] = assay: Pre-emergence effects on crop plants (Table D3); settings: crop plant; application rate 80 g/ha; visual grading after ca. 3 weeks
AMARE = assay: Herbicidal pre-emergence action (Table A8); type: in vivo, Amaranthus retroflexus; settings: application rate 1280 g/ha; visual grading after ca. 3 weeks vs untreated controls (100% = plants have died off, 0% = as control plants)
Procedure, shortened: as §1

ECHCG [13] = assay: Herbicidal pre-emergence action, section C (Table C6); type: in vivo, Echinochloa crus-galli; settings: application rate 80 g/ha; visual grading after ca. 3 weeks
ABUTH [14] = assay: Herbicidal pre-emergence action (Table A1); type: in vivo, Abutilon theophrasti; settings: application rate 1280 g/ha; visual grading after ca. 3 weeks vs untreated controls (100% = plants have died off, 0% = as control plants)
Procedure, shortened: as §1

STEME = assay: Herbicidal pre-emergence action (Table A6); type: in vivo, Stellaria media; settings: application rate 320 g/ha; visual grading after ca. 3 weeks
Procedure, shortened: as §1

VERPE [15] = assay: Herbicidal pre-emergence action, section C (Table C11); type: in vivo, Veronica persica; settings: visual grading after ca. 3 weeks
ABUTH [16] = assay: Herbicidal post-emergence action, section E (Table E1); type: in vivo, Abutilon theophrasti; settings: application rate 320 g/ha; assessed visually after ca. 3 weeks
Text: as §2

VERPE [17] = assay: Herbicidal pre-emergence action (Table A11); type: in vivo, Veronica persica; settings: application rate 1280 g/ha; visual grading after ca. 3 weeks
Procedure, shortened: as §1

MATIN [18] = assay: Herbicidal pre-emergence action (Table A4); type: in vivo, Matricaria inodora; settings: application rate 1280 g/ha; visual grading after ca. 3 weeks
Procedure, shortened: as §1

ZEAMX [19] = assay: Pre-emergence effects on crop plants (Table D1); type: in vivo, Zea mays; settings: crop plant, visual grading after ca. 3 weeks
VIOTR [20] = assay: Herbicidal post-emergence action, section E (Table E10); type: in vivo, Viola tricolor; settings: application rate 320 g/ha; assessed visually after ca. 3 weeks
Text: as §2

DIGSA [21] = assay: Herbicidal pre-emergence action, section C (Table C5); type: in vivo, Digitaria sanguinalis; settings: visual grading after ca. 3 weeks
MATIN [22] = assay: Herbicidal pre-emergence action, section C (Table C8); type: in vivo, Matricaria inodora; settings: application rate 320 g/ha; visual grading after ca. 3 weeks
ORYZA [23] = assay: Post-emergence effects on crop plants (Table F3); type: in vivo, Oryza sativa; settings: application rate 320 g/ha, crop plant ORYZA
Text: as §2

ALOMY [24] = assay: Herbicidal pre-emergence action (Table A9); type: in vivo, Alopecurus myosuroides; settings: application rate 1280 g/ha; visual grading after ca. 3 weeks
Procedure, shortened: as §1

POAAN [25] = assay: Herbicidal pre-emergence action (Table A7); type: in vivo, Poa annua; settings: application rate 320 g/ha; visual grading after ca. 3 weeks
Procedure, shortened: as §1

LOLRI [26] = assay: Herbicidal pre-emergence action (Table A3); type: in vivo, Lolium rigidum; settings: application rate 320 g/ha; visual grading after ca. 3 weeks
Procedure, shortened: as §1

DIGSA [27] = assay: Herbicidal pre-emergence action (Table A12); type: in vivo, Digitaria sanguinalis; settings: visual grading after ca. 3 weeks
Procedure, shortened: as §1

ALOMY [28] = assay: Herbicidal pre-emergence action, section C (Table C2); type: in vivo, Alopecurus myosuroides; settings: application rate 320 g/ha; visual grading after ca. 3 weeks
VERPE [29] = assay: Herbicidal post-emergence action (Table B10); type: in vivo, Veronica persica; settings: application rate 1280 g/ha
Procedure, shortened: as §3

MATIN [30] = assay: Herbicidal post-emergence action (Table B6); type: in vivo, Matricaria inodora; settings: application rate 1280 g/ha; rated visually after about 3 weeks
Procedure, shortened: as §3

TRZAS [31] = assay: Pre-emergence effects on crop plants (Table D2); type: in vivo, Triticum aestivum; settings: crop plant; application rate 320 g/ha; visual grading after ca. 3 weeks
POLCO = assay: Herbicidal pre-emergence action, section C (Table C9); type: in vivo, Polygonum convolvulus; settings: application rate 320 g/ha; visual grading after ca. 3 weeks
LOLRI [32] = assay: Herbicidal post-emergence action (Table B5); type: in vivo, Lolium rigidum; settings: application rate 1280 g/ha; rated visually after about 3 weeks
Procedure, shortened: as §3

VERPE [33] = assay: Herbicidal post-emergence action, section E (Table E9); type: in vivo, Veronica persica; settings: application rate 320 g/ha; assessed visually after ca. 3 weeks
Text: as §2

POAAN [34] = assay: Herbicidal post-emergence action (Table B7); type: in vivo, Poa annua; settings: application rate 1280 g/ha
Procedure, shortened: as §3

ABUTH [35] = assay: Herbicidal post-emergence action (Table B1); type: in vivo, Abutilon theophrasti; settings: application rate 1280 g/ha; treated at one-leaf stage; rated visually after about 3 weeks vs untreated controls (100% = plants have died, 0% = like control plants)
Procedure, shortened: as §3

ECHCG [36] = assay: Herbicidal post-emergence action, section E (Table E5); type: in vivo, Echinochloa crus-galli; settings: application rate 320 g/ha; assessed visually after ca. 3 weeks
Text: as §2

SMILES: O=C1N(Cc2ccccc2F)CCCC12CCN(Cc1c(F)cccc1F)C2=O (racemic) [I-020]
- pre-emergence activity against SETVI (SETVI [1]): 100%
- pre-emergence activity against SETVI (SETVI [2]): 100%
- pre-emergence activity against ECHCG (ECHCG [3]; application rate 1280 g/ha): 100%
- post-emergence activity against ZEAMX (ZEAMX [4]): 20%
- post-emergence activity against TRZAS (TRZAS [5]): 0%
- pre-emergence activity against VIOTR (VIOTR [6]): 90%
- pre-emergence activity against LOLRI (LOLRI [7]): 100%
- pre-emergence activity against KCHSC (KCHSC): 90%
- post-emergence activity against SETVI (SETVI [8]): 90%
- pre-emergence activity against ABUTH (ABUTH [9]): 90%
- post-emergence activity against ECHCG (ECHCG [10]): 90%
- post-emergence activity against DIGSA (DIGSA [11]): 90%
- pre-emergence activity against ORYZA (ORYZA [12]): 0%
- pre-emergence activity against AMARE (AMARE): 90%
- pre-emergence activity against ECHCG (ECHCG [13]): 100%
- pre-emergence activity against ABUTH (ABUTH [14]): 90%
- pre-emergence activity against STEME (STEME): 90%
- pre-emergence activity against VERPE (VERPE [15]; application rate 320 g/ha): 90%
- post-emergence activity against ABUTH (ABUTH [16]): 80%
- pre-emergence activity against VERPE (VERPE [17]): 90%
- pre-emergence activity against MATIN (MATIN [18]): 90%
- pre-emergence activity against ZEAMX (ZEAMX [19]; application rate 80 g/ha): 0%
- post-emergence activity against VIOTR (VIOTR [20]): 80%
- pre-emergence activity against DIGSA (DIGSA [21]; application rate 80 g/ha): 100%
- pre-emergence activity against MATIN (MATIN [22]): 80%
- post-emergence activity against ORYZA (ORYZA [23]): 0%
- pre-emergence activity against ALOMY (ALOMY [24]): 90%
- pre-emergence activity against POAAN (POAAN [25]): 100%
- pre-emergence activity against LOLRI (LOLRI [26]): 100%
- pre-emergence activity against DIGSA (DIGSA [27]; application rate 320 g/ha): 100%
- pre-emergence activity against ALOMY (ALOMY [28]): 100%

SMILES: O=C1N(Cc2cccc(F)c2F)CCCC12CCN(Cc1cccc(F)c1F)C2=O (racemic) [I-025]
- post-emergence activity against VERPE (VERPE [29]): 90%
- pre-emergence activity against SETVI (SETVI [1]): 90%
- pre-emergence activity against SETVI (SETVI [2]): 100%
- pre-emergence activity against ECHCG (ECHCG [3]; application rate 320 g/ha): 100%
- post-emergence activity against MATIN (MATIN [30]): 90%
- post-emergence activity against ZEAMX (ZEAMX [4]): 0%
- post-emergence activity against TRZAS (TRZAS [5]): 0%
- pre-emergence activity against VIOTR (VIOTR [6]): 90%
- pre-emergence activity against LOLRI (LOLRI [7]): 90%
- pre-emergence activity against KCHSC (KCHSC): 90%
- post-emergence activity against ECHCG (ECHCG [10]): 90%
- pre-emergence activity against TRZAS (TRZAS [31]): 10%
- pre-emergence activity against POLCO (POLCO): 90%
- post-emergence activity against LOLRI (LOLRI [32]): 90%
- post-emergence activity against DIGSA (DIGSA [11]): 90%
- pre-emergence activity against AMARE (AMARE): 90%
- pre-emergence activity against ECHCG (ECHCG [13]): 100%
- pre-emergence activity against STEME (STEME): 90%
- pre-emergence activity against VERPE (VERPE [15]; application rate 80 g/ha): 90%
- post-emergence activity against ABUTH (ABUTH [16]): 80%
- post-emergence activity against VERPE (VERPE [33]): 80%
- pre-emergence activity against VERPE (VERPE [17]): 90%
- pre-emergence activity against MATIN (MATIN [18]): 90%
- pre-emergence activity against ZEAMX (ZEAMX [19]; application rate 320 g/ha): 0%
- pre-emergence activity against DIGSA (DIGSA [21]; application rate 320 g/ha): 100%
- post-emergence activity against POAAN (POAAN [34]): 90%
- pre-emergence activity against MATIN (MATIN [22]): 90%
- post-emergence activity against ORYZA (ORYZA [23]): 0%
- pre-emergence activity against POAAN (POAAN [25]): 100%
- post-emergence activity against ABUTH (ABUTH [35]): 90%
- post-emergence activity against ECHCG (ECHCG [36]): 80%
- pre-emergence activity against LOLRI (LOLRI [26]): 100%
- pre-emergence activity against DIGSA (DIGSA [27]; application rate 1280 g/ha): 100%
- pre-emergence activity against ALOMY (ALOMY [28]): 100%
